The test system of data set [1] is 60 different human pathogenic tumor cell lines. As to the kind of experiment: DTP NCI-60 in vitro human tumor cell line screening (SRB). In kind it is cell-based. The following applies: mean growth inhibition of all 60 tumor cell lines, two days exposure. The method, then:
For studying the pharmacological properties, the compounds of Examples 1 to 3 were tested under the “DTP NCI-60 in vitro human tumor cell line screening” of the National Cancer Institute (NCI), Bethesda, Md., United States. They were tested against 60 different human pathogenic tumor cell lines which originated from nine types of cancer (leukemia, non-small cell lung cancer, colon cancer, cancer of the CNS, melanoma, ovarian cancer, renal cancer, prostate cancer, breast cancer). To assess efficacy, the tumor cells were exposed to the compounds over two days, then growth inhibition was determined indirectly by determining the protein biomass with sulforhodamine B (SRB). Untreated cultures were used as reference. The mean-graph midpoint (MG_MIDGGI50) corresponds to a mean response rate of all tested human cell lines for the substance tested.

Data set [2] relates to mammary carcinoma, ovarian carcinoma, colon carcinoma, renal cell carcinoma, and non-small cell lung cancer. To be noted: literature; cited from earlier work.
The conditions of data set [3]: clinical phase I; cited from earlier work.
Data set [4] concerns HeLa cells. The experiment in a line: PARP apoptosis assay (HeLa cells). The following applies: after 8 h, FIG. 3. In kind it is cell-based. As for the experimental part: (§1) In addition, exemplary compound 1 was tested for apoptotic activity. The enzyme PARP (poly-ADP ribose polymerase) can be used to determine the apoptotic status of a cell; the enzyme is cleaved into a 89 kDa fragment when the cell transitions into apoptosis and can therefore serve as a apoptosis marker ([…] S H et al, Cancer Research, 1993; 53:3976-3985). […] Etoposide was chosen as reference compound and tested as well.

Data set [5] in a line: logD by HPLC analysis. Format: physicochemical. The following applies: determined using HPLC analysis.
Data set [6] concerns pancreatic carcinoma, ovarian carcinoma, and prostate cancer. The following applies: phase II study, at least some cases; cited from earlier work.
In data set [7] the test system is malignant melanoma, hepatocellular carcinoma, and mesothelioma. The following applies: clinical study, with carboplatin; cited from earlier work.
For data set [8], the system named is PARP (poly-ADP ribose polymerase) cleavage. As to the kind of experiment: PARP assay comparing Example 1 and PZA (FIG. 4). In kind it is cell-based. The method, then:
as §1
Another PARP assay was performed to obtain a direct comparison of the pro-apoptotic effects of Example 1 (here: P8D 6) and the potent dual topoisomerase I/II inhibitor pyrazoloacridine (PZA) known from literature (FIG. 4).

Data set [9] in a line: Solubility pH 7.4 by HPLC analysis. Format: physicochemical. The following applies: aqueous buffer; pH 7.4, HPLC analysis.
For data set [10], the system named is malignant melanoma, cervical cancer, and cancer of the parotid gland. To be noted: clinical phase I; cited from earlier work.
For data set [11], the system named is colon carcinoma and non-small cell lung cancer. To be noted: in-vivo xenograft; cited from earlier work.
Data set [12] has as its target T1, human topoisomerase I (Homo sapiens, UniProt P11387).
T1 sequence (P11387 1-765): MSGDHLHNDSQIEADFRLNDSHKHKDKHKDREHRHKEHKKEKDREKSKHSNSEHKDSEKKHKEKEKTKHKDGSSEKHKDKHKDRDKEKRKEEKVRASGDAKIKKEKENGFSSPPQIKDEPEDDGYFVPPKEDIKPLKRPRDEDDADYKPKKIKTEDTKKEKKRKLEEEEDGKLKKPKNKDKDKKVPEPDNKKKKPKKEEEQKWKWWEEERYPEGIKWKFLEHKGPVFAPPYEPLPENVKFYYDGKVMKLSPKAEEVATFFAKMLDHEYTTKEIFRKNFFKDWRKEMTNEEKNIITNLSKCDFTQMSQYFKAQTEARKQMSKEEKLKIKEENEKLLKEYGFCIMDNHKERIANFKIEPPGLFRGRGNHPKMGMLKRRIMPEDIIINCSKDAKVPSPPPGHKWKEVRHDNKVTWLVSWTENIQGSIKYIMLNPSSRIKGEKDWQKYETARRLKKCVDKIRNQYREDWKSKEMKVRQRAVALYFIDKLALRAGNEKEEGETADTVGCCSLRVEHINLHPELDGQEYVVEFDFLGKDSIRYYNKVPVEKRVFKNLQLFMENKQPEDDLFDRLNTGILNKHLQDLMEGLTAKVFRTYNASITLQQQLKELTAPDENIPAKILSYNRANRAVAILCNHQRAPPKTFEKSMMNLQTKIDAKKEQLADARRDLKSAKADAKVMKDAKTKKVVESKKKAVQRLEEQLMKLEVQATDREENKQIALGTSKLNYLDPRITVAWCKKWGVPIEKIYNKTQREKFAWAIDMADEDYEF
The experiment in a line: Relaxation assay (supercoiled plasmid pUC18). Format: biochemical.
Text: A relaxation assay can be used to determine the inhibition of human DNA topoisomerase I by a substance. Topo I is capable of transforming the supercoiled plasmid pUC18 into the relaxed form.

The target in data set [13] is human topoisomerase IIα (Homo sapiens, UniProt P11388). As to the kind of experiment: Decatenation assay (kDNA). In kind it is biochemical. The following applies: for inhibition of topo IIα: 10 μM and 100 μM, FIG. 2 lanes 4 and 5.
Text: (§2) A decatenation assay was used, which can be used to determine the inhibition of human topoisomerases II (α/β) by a substance. The protein is capable of decatenating kinetoplastid DNA (kDNA), which is present in the form of interlocked minicircles (so-called catenates), i.e. of cleaving it into individual minicircles.
The nature of data set [14]: Tolerability / MTD study, one-time intravenous application. Format: in vivo, female athymic nude mice. As for the experimental part: The maximum tolerated dose (MTD) was determined as part of an in vivo study of tolerability of P8-D6 in female athymic nude mice.
A total of 18 female athymic nude mice at ages of 7 weeks (groups 1 and 2), 8 weeks (groups 3 and 4), and 9 weeks (groups 5 and 6) were involved in the in vivo study.
To determine the tolerability of P8-D6 for a one-time intravenous application into the tail vein, the study animals of groups 2, 4, and 6 (3 animals per group) were given P8-D6 at doses of 1 mg/kg body weight, 5 mg/kg body weight, and 10 mg/kg body weight on study days 0, 7, and 14, respectively. The control animals of groups 1, 3, and 5 (3 animals per group) were administered PBS (phosphate buffered saline) (pH 7.4) at a dose of 10 mL/kg body weight on the same respective days. The study animals were monitored in a period of up to 14 days for clinical signs, changes in behavior, and survival. The body weight was measured three times a week. The first measurement was on the application day. Criteria for early abortion of the study for ethical reasons were weight loss of more than 20% from the baseline weight. A necropsy was performed on study animals that died during the study and on all other study animals at the end of the study phase. Organ samples were taken from six study animals ([…], 1 animal from group 1, 1 animal from group 2, and one animal from group 6).

Data set [15] deals with human topoisomerase IIβ (Homo sapiens, UniProt Q02880). The experiment in a line: Decatenation assay (kDNA). In kind it is biochemical. The following applies: all three enzymes tested; read-out: IC50 topoisomerase IIβ.
Text: as §2
For data set [16], the system named is cancer in the head and neck, colon carcinoma, renal carcinoma, and non-small cell lung cancer. The following applies: literature; cited from earlier work.

Counter-ions that a name gives are not always drawn. A value given as a limit tells only on which side of the number the result lay.

human topoisomerase IIα, sequence (P11388 whole entry): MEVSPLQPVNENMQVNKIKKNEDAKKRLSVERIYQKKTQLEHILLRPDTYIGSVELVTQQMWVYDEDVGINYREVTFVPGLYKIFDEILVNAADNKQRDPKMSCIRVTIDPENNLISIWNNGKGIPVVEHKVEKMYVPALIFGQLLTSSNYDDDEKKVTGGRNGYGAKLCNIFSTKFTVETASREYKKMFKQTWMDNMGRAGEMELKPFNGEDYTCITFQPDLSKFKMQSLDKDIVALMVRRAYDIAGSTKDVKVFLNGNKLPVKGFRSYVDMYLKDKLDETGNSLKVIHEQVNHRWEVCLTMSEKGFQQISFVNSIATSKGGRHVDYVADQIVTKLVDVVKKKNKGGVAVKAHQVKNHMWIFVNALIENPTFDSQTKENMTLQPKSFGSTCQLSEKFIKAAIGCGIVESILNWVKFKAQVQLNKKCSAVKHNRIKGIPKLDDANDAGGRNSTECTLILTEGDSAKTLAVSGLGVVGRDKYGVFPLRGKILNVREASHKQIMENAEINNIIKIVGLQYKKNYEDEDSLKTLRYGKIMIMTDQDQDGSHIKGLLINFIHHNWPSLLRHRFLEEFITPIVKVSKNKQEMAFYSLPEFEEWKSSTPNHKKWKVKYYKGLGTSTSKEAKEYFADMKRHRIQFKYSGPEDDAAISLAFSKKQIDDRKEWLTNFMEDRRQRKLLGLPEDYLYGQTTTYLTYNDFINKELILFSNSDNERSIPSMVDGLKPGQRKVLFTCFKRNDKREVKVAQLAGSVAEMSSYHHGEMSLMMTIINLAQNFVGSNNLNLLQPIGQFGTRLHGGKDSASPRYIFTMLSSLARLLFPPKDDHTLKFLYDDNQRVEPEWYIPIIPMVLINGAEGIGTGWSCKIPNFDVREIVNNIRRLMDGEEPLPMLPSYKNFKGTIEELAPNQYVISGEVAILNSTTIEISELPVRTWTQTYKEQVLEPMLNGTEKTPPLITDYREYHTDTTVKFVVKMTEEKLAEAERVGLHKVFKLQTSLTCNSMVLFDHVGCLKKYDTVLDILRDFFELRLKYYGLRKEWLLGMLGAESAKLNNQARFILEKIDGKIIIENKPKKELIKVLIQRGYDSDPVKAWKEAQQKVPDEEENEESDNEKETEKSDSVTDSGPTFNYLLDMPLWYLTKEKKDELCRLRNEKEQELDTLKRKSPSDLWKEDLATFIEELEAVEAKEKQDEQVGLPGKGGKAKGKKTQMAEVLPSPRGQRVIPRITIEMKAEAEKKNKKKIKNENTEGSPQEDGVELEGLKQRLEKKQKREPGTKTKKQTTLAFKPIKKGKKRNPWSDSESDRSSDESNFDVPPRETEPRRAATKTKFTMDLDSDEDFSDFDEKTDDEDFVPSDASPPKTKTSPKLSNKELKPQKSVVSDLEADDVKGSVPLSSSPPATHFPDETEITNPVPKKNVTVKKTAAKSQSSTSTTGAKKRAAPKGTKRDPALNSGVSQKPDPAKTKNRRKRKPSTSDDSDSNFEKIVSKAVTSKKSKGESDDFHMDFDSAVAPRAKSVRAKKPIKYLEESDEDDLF
human topoisomerase IIβ, sequence (Q02880 whole entry): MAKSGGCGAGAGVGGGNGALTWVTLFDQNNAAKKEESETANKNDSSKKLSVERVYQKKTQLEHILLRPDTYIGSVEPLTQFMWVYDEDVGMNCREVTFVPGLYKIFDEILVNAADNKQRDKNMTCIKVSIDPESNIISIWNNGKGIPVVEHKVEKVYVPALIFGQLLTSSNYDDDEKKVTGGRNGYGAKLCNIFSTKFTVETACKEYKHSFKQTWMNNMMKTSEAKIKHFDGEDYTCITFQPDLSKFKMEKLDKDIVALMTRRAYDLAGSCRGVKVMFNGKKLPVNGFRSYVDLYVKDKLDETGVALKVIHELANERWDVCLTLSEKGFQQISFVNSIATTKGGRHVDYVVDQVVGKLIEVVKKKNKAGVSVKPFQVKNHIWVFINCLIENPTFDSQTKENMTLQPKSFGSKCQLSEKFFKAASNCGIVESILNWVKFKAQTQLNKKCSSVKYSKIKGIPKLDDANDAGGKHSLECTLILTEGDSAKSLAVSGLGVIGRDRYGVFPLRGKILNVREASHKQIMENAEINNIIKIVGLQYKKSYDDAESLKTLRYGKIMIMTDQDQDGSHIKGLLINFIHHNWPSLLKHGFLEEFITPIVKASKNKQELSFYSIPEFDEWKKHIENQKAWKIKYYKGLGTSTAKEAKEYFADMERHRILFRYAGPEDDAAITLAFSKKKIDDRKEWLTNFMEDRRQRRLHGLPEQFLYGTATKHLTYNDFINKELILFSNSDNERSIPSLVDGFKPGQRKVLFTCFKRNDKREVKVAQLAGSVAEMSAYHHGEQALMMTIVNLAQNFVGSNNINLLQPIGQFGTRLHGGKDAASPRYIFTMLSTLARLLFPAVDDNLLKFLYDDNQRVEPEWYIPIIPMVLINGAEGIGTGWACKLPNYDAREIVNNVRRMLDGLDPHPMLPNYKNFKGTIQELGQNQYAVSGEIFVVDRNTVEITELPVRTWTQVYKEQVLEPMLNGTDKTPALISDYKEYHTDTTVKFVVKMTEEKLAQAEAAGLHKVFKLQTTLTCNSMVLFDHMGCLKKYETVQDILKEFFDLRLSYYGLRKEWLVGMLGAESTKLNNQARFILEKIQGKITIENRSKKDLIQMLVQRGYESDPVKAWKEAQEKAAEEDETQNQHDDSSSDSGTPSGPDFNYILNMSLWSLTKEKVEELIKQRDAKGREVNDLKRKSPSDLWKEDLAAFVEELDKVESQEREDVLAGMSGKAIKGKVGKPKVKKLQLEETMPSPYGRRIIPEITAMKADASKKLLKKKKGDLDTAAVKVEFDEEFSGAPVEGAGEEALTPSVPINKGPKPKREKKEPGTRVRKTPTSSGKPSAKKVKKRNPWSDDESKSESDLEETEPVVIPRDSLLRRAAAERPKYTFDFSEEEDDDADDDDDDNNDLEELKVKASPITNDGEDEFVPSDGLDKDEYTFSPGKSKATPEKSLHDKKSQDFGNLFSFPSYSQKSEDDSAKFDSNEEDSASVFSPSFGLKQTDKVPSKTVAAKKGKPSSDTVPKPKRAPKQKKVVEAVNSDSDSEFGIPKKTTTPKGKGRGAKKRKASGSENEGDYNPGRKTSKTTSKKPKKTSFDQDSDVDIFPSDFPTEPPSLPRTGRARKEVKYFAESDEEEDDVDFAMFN

As usually defined, the GI50 is the concentration at which growth is held to half of that of the control. With `CC[C@@]1(O)C(=O)OCc2c1cc1n(c2=O)Cc2cc3ccccc3nc2-1` [Camptothecin, reference compound], in data set [1] (Homo sapiens, 48 h), growth was halved (GI50) at 44 nM.
`Cc1cnc(NCCCN(C)C)c2c1[nH]c1ccc3cc(O)ccc3c12` [Intoplicin]: in [2], the activity against carcinomas result was “high activity”. Moreover, in [3], the hepatotoxicity entry is “dose-limiting”. For the same compound, the 50% growth inhibitory concentration (GI50) in [1] was found to be 530 nM.
On to `COc1cc([C@@H]2c3cc4c(cc3[C@@H](O[C@@H]3O[C@@H]5CO[C@@H](C)O[C@H]5[C@H](O)[C@H]3O)[C@H]3COC(=O)[C@H]23)OCO4)cc(OC)c1O` [Etoposide, reference compound], for which the “concentration at which cleaved PARP (89 kDa band) is visible / apoptosis initiated” value in [4] is above 100 µM. The same compound showed a GI50 in data set [1] (Homo sapiens, 48 h) of 990 nM.
In general, chromatographic logD refers to a lipophilicity value derived from retention on a column. In turn, `COc1cc(-c2cc3ccncc3c3nc(OCCCN(C)C)c4cnccc4c23)cc(OC)c1OC` [Example 2, 6-(3-dimethylaminopropoxy)-11-(3,4,5-trimethoxyphenyl)pyrido[3,4-c][1,9]-phenanthroline] showed a chromatographic logD in [5] of 3.6. The compound also registered a 50% growth inhibitory concentration (GI50) in [1] (Homo sapiens, 48 h) of 52 nM.
With `COc1ccc2c(c1)-c1nn(CCCN(C)C)c3ccc([N+](=O)[O-])c(c13)N2` [PZA, pyrazoloacridine], the results for the clinical outcome in [6] and in data set [7] were “partial remission” and “could not be cured but were stabilized over a few months”, respectively. The “concentration at which effective in PARP assay” value in [8] (FIG. 4) was 100 µM. This compound also returned a GI50 in [1] (Homo sapiens, 48 h) of 200 nM.
With `COc1cc([C@@H]2c3cc4c(cc3[C@@H](O[C@@H]3O[C@@H]5CO[C@@H](c6cccs6)O[C@H]5[C@H](O)[C@H]3O)[C@H]3COC(=O)[C@H]23)OCO4)cc(OC)c1O` [Teniposide], in [1] (Homo sapiens, 48 h), the GI50 was determined as 390 nM.
Usually solubility stands for the concentration that dissolves in the medium under given conditions. Higher therefore signals much dissolved substance. `CN(C)CCOc1nc2c(c3ccncc13)C(c1cccc(Cl)c1)Cc1ccncc1-2` (centres unmarked) [Example 3, 11-(3-chlorophenyl)-6-(2-dimethylaminoethoxy)-11,12-dihydropyrido[3,4-c]-[1,9]phenanthroline Hydrochloride] registered a chromatographic logD in data set [5] of 3.6. In data set [1] (Homo sapiens, 48 h), this compound returned a concentration for 50% growth inhibition (GI50) of 447 nM. The solubility in data set [9] is 5.28 ± 0.09 mM.
Take `COc1cccc2c1ccc1nc3cccc(C(=O)N[C@H](C)CN(C)C)c3nc12` [XR11576]: the clinical outcome in data set [10] is listed as “stabilization, but no remission”. Besides, the activity in xenograft entry in [11] was “high activity”.
What is called IC50 is the concentration at which inhibition is half-maximal. Turning to `COc1cc(-c2cc3ccncc3c3nc(OCCN(C)C)c4cnccc4c23)cc(OC)c1OC` [Example 1, 6-(2-dimethylaminoethoxy)-11-(3,4,5-trimethoxyphenyl)pyrido[3,4-c][1,9]-phenanthroline Hydrochloride], the “concentration at which cleaved PARP (89 kDa band) is visible / apoptosis initiated” value in data set [4] was found to be 1 µM. The compound further had a chromatographic logD in data set [5] of 3.7. Moreover, the IC50 in data set [12] (all three enzymes tested, read-out: IC50 topoisomerase I) is below 10000 nM; in data set [13] (all three enzymes tested, read-out: IC50 topoisomerase IIα), below 10000 nM; in data set [15] it was below 10000 nM. The “inhibition of topoisomerase I activity” value in [12] (at 10 μM, FIG. 1) is “almost complete”. Moreover, the “inhibition of topo IIα” value in [13] (Hydrochloride) was “exemplary inhibition of topo IIα”; in [13] (listed as exemplary compound 1, Hydrochloride), “potently inhibit topo IIα”. Further, in [8] (FIG. 4, direct comparison with PZA), the “apoptotic effect in PARP assay” value was “extraordinarily strong apoptotic effect”. Besides, the tolerability result in data set [14] (1 mg/kg body weight, female athymic nude mice) is on record as “good tolerability”. Besides, in data set [14] (5 mg/kg body weight, female athymic nude mice), the “loss of body weight and apathy” value was “reversible”. The “acute lethal side effects” value in data set [14] (1, 5 and 10 mg/kg body weight) is “None”. Moreover, in [1] (Homo sapiens, 48 h), the concentration for 50% growth inhibition (GI50) turned out to be 49 nM. The compound also yielded a solubility in data set [9] of 0.87 ± 0.03 mM.
Take `CCc1c2c(nc3ccc(OC(=O)N4CCC(N5CCCCC5)CC4)cc13)-c1cc3c(c(=O)n1C2)COC(=O)[C@]3(O)CC` [Irinotecan]: the GI50 in data set [1] (Homo sapiens, 48 h) was found to be 160 nM.
In the case of `CN(C)CCNc1nc2cc(O)ccc2c2c1C(=O)c1ccccc1-2` [TAS-103], the efficacy in patients result in data set [16] is “sufficient to keep patients stable for a period of a few months, but a cure could not be achieved”.
In the case of `CC[C@@]1(O)C(=O)OCc2c1cc1n(c2=O)Cc2cc3c(CN(C)C)c(O)ccc3nc2-1` [Topotecan], halving of growth in data set [1] (Homo sapiens, 48 h) (GI50) required 14 nM. This counts as double-digit nanomolar.

Values taken from patent publication US11046693B2, “Pyrido-phenanthroline derivatives, production and use thereof as medicaments” (Christian-Albrechts-Universitat Zu Kiel, priority 2016, dated 2021).
